Where “and” joins values, the source holds several entries; their conditions need not be identical. Identical values can stand only once.
How the values were obtained:
[1] = target: anti-thrombin III (Homo sapiens, UniProt P01008); details: cited from earlier work
[2] = tested on: BxPC-3 Human Pancreas Tumor Xenograft; assay: BxPC-3 human pancreas tumor xenograft model: tumor weight and tumor growth inhibition; format: in vivo, mouse; details: for Day 26 Tumor Weight: mean ± Std Err, treatment administered until Day 26
Procedure: Compounds tested in the experiment were as follows. […] A concentration of 4.8 mg/ml was formulated to deliver a 24 mg/kg dose at a 5 ml/kg dose volume when administered subcutaneously. […] Nab-paclitaxel was manufactured by Abraxis BioScience LLC (Bridgewater, N.J.) and diluted in a 0.9% NaCl solution to a concentration of 1.5 mg/ml to deliver 15 mg/kg, in a 10 ml/kg dose volume. All standard agent preparations were made fresh prior to their administration.
BxPC-3 cells were obtained and prepared as follows. The BxPC-3 pancreas tumor cell line was received from American Type Culture Collection (ATCC, Manassas, Va.). Cultures were maintained in RPMI 1640 medium (Hyclone, Logan, Utah) supplemented with 5% fetal bovine serum. The cells were housed in a 5% CO2 atmosphere. The cultures were expanded in tissue culture flasks at a 1:3 split ratio until a sufficient amount of cells were harvested.
(§1) All experiments were conducted on female athymic nude mice (Hsd:Athymic Nude-Foxn1nu) supplied by Harlan (Indianapolis, Ind.). Mice were received at four weeks of age, 12-15 grams in weight, and were acclimated for seven days prior to handling. The mice were housed in microisolator cages (Lab Products, Seaford, Del.) and maintained under specific pathogen-free conditions. All procedures were carried out under appropriate institutional guidelines for animal care.
BxPC-3 Human Pancreas Tumor Xenograft Model: Female athymic nude mice per treatment condition were inoculated subcutaneously in the right flank with 0.1 ml of a 50% RPMI 1640/50% Matrigel™ (BD Biosciences, Bedford, Mass.) mixture containing a suspension of BxPC-3 tumor cells (approximately 5×10^6 cells/mouse).
(§2) Seven days following inoculation, tumors were measured using calipers and tumor weight was calculated using the animal study management software, Study Director V.1.7.54 k (Study Log). See Britten C D, et al. Enhanced antitumor activity of 6-hydroxymethylacylfulvene in combination with irinotecan and 5-fluorouracil in the HT29 human colon tumor xenograft model. Cancer Res 59:1049-1053, 1999. […] Body weights were recorded when the mice were randomized and were taken twice weekly thereafter in conjunction with tumor measurements, on each of Days 1, 4, 8, 11, 15, 18, 22, 26, 30, 33, and 36.
(§3) The study was terminated when the vehicle control reached an endpoint of 1500 mg, on Day 36.
Mean tumor growth inhibition (TGI) was calculated utilizing Formula A below (deaths were not included in the TGI calculations).
All statistical analyses in the xenograft study were performed with GraphPad Prism® v4 software.

[3] = Body weight, deaths and clinical observations in the BxPC-3 xenograft study; details: for Starting Weight: baseline body weight, female athymic nude mice, BxPC-3 xenograft study
Procedure: as §1, §2, §3

[4] = ANOVA with Tukey's Multiple Comparison Test
[5] = Day 26, group mean, dosing per Table 1
[6] = total deaths on or before Day 26, N = 10 per group

anti-thrombin III, sequence (P01008 33-464, species assumed): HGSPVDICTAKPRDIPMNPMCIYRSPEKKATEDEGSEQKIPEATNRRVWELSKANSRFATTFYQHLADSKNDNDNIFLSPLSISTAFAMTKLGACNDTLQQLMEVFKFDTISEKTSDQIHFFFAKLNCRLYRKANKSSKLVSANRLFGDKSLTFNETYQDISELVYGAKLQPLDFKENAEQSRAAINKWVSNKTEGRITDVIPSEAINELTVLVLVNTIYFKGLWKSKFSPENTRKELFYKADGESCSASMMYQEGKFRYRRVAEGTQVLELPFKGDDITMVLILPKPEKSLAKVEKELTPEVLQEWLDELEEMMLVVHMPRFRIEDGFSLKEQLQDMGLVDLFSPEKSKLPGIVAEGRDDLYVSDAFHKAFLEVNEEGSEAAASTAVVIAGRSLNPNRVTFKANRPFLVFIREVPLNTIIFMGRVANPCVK

Q: Which results are given for heparin?
A: Kd [1]: 1560 nM; Kd for anti-thrombin III [1]: 22 µg/mL

Q: Which “Difference in tumor weight on Day 26 compared to vehicle control” value [2, 4] does the source give for `O=C1[O][Pt]2([NH][C@@H]3CCCC[C@H]3[NH]2)[O]C1=O` [Oxaliplatin] here?
A: The value was “No significant difference”.

Q: What about the “Mean tumor weight, Day 26” value [2, 5] of the same molecule?
A: The value was 635.0 mg.

Q: What about the “Day 26 Tumor Weight” value ([2]; Day 26) of the same molecule?
A: The value was 635.0 ± 52.3 mg.

Q: What about the “Day 26 % TGI” value ([2]; Day 26 vs Day 1, relative to vehicle control (Group 1), deaths not included) of the same molecule?
A: The value was 8.0% and 8.0 (10/10) %.

Q: What about the “Day 1 Average Weight” value [3] of the same molecule?
A: Its value is 20.82 g.

Q: What about the “Day 4 % Weight Loss or Gain” value ([3]; Day 4, vs starting weight) of the same molecule?
A: Its value is −2.02%.

Q: What about the “Day 8 % Weight Loss or Gain” value ([3]; Day 8, vs starting weight) of the same molecule?
A: Its value is −0.82%.

Q: And the “Day 11 Average Weight” value [3]?
A: Its value is 20.12 g.

Q: And the “Day 15 Average Weight” value [3]?
A: The value was 20.81 g.

Q: What about the “Day 15 % Weight Loss or Gain” value ([3]; Day 15, vs starting weight) of the same molecule?
A: The value was −0.05%.

Q: And the “Day 18 % Weight Loss or Gain” value ([3]; Day 18, vs starting weight)?
A: Its value is −1.78%.

Q: What about the “Starting Weight” value [3] of the same molecule?
A: The value was 20.82 g.

Q: And the “Day bruising of the tails was first observed” value ([3]; mouse, in vivo)?
A: Its value is 11 days.

Q: And the “Mice demonstrating bruising on the tails or abdomen (site of injection)” value ([3]; of ten mice)?
A: Its value is “One mouse”.

Q: What about the Deaths [3, 6] of the same molecule?
A: The Deaths was 0.

Q: Which results are given for `Nc1ccn([C@@H]2O[C@H](CO)[C@@H](O)C2(F)F)c(=O)n1` [Gemcitabine]?
A: Difference in tumor weight on Day 26 compared to vehicle control [2, 4]: No significant difference; Difference in tumor weight on Day 36 compared to vehicle control [2, 4]: No significant difference; Mean tumor weight, Day 1 ([2]; Day 1 (randomization), group mean, dosing per Table 1): 124.3 mg; Median tumor weight, Day 1 ([2]; Day 1 (randomization), group median, dosing per Table 1): 121.1 mg; Tumor weight, individual mouse, Day 1 ([2]; Day 1 (randomization), individual mouse, dosing per Table 1 (ODSH 24, oxaliplatin 10, gemcitabine 80, nab-paclitaxel 15 mg/kg)): 132 mg and 139 mg and 126 mg and 104 mg and 107 mg and 111 mg and 116 mg and 166 mg and 146 mg and 96 mg; Mean tumor weight, Day 4 ([2]; Day 4, group mean, dosing per Table 1): 152.5 mg; Median tumor weight, Day 4 ([2]; Day 4, group median, dosing per Table 1): 140.2 mg; Tumor weight, individual mouse, Day 4 ([2]; Day 4, individual mouse, dosing per Table 1): 189 mg and 214 mg and 126 mg and 122 mg and 131 mg and 133 mg and 146 mg and 176 mg and 155 mg and 135 mg; Mean tumor weight, Day 8 ([2]; Day 8, group mean, dosing per Table 1): 162.2 mg; Median tumor weight, Day 8 ([2]; Day 8, group median, dosing per Table 1): 147.4 mg; Tumor weight, individual mouse, Day 8 ([2]; Day 8, individual mouse, dosing per Table 1): 193 mg and 282 mg and 129 mg and 130 mg and 125 mg and 161 mg and 175 mg and 180 mg and 134 mg; Mean tumor weight, Day 11 ([2]; Day 11, group mean, dosing per Table 1): 198.2 mg; Median tumor weight, Day 11 ([2]; Day 11, group median, dosing per Table 1): 191.0 mg; Tumor weight, individual mouse, Day 11 ([2]; Day 11, individual mouse, dosing per Table 1): 235 mg and 328 mg and 146 mg and 145 mg and 119 mg and 150 mg and 202 mg and 242 mg and 234 mg and 180 mg; Mean tumor weight, Day 15 ([2]; Day 15, group mean, dosing per Table 1): 263.8 mg; Median tumor weight, Day 15 ([2]; Day 15, group median, dosing per Table 1): 259.2 mg; Tumor weight, individual mouse, Day 15 ([2]; Day 15, individual mouse, dosing per Table 1): 319 mg and 375 mg and 211 mg and 218 mg and 181 mg and 228 mg and 245 mg and 288 mg and 300 mg and 274 mg; Mean tumor weight, Day 18 ([2]; Day 18, group mean, dosing per Table 1): 332.1 mg; Median tumor weight, Day 18 ([2]; Day 18, group median, dosing per Table 1): 340.1 mg; Tumor weight, individual mouse, Day 18 ([2]; Day 18, individual mouse, dosing per Table 1): 413 mg and 379 mg and 258 mg and 267 mg and 224 mg and 269 mg and 441 mg and 376 mg and 389 mg and 304 mg; Mean tumor weight, Day 22 ([2]; Day 22, group mean, dosing per Table 1): 459.4 mg; Median tumor weight, Day 22 ([2]; Day 22, group median, dosing per Table 1): 451.9 mg; Tumor weight, individual mouse, Day 22 ([2]; Day 22, individual mouse, dosing per Table 1): 621 mg and 514 mg and 372 mg and 400 mg and 350 mg and 332 mg and 592 mg and 509 mg and 500 mg and 404 mg; Mean tumor weight, Day 26 [2, 5]: 594.7 mg; Median tumor weight, Day 26 ([2]; Day 26, group median, dosing per Table 1): 605.8 mg; Tumor weight, individual mouse, Day 26 ([2]; Day 26, individual mouse, dosing per Table 1): 797 mg and 739 mg and 468 mg and 534 mg and 431 mg and 389 mg and 730 mg and 628 mg and 647 mg and 583 mg; Day 26 Tumor Weight ([2]; Day 26): 594.7 ± 43.8 mg; Mean tumor weight, Day 30 ([2]; Day 30, group mean of surviving mice, dosing per Table 1): 874.3 mg; Median tumor weight, Day 30 ([2]; Day 30, group median, dosing per Table 1): 858.0 mg; Tumor weight, individual mouse, Day 30 ([2]; Day 30, individual mouse, dosing per Table 1): 1,121 mg and 1,008 mg and 674 mg and 860 mg and 667 mg and 589 mg and 1,150 mg and 856 mg and 992 mg and 826 mg; Mean tumor weight, Day 33 ([2]; Day 33, group mean of surviving mice, dosing per Table 1): 1,044.2 mg; Median tumor weight, Day 33 ([2]; Day 33, group median, dosing per Table 1): 1,033.3 mg; Tumor weight, individual mouse, Day 33 ([2]; Day 33, individual mouse, dosing per Table 1): 1,367 mg and 1,132 mg and 878 mg and 1,036 mg and 936 mg and 624 mg and 1,275 mg and 1,030 mg and 1,158 mg and 1,008 mg; Day 36 Tumor Weight ([2]; Day 36, treatment administered until Day 35): 1288.8 ± 74.3 mg; Median tumor weight, Day 36 ([2]; Day 36, group median, dosing per Table 1): 1,306.7 mg; Tumor weight, individual mouse, Day 36 ([2]; Day 36, individual mouse, dosing per Table 1): 1,573 mg and 1,368 mg and 963 mg and 1,347 mg and 1,106 mg and 923 mg and 1,596 mg and 1,482 mg and 1,267 mg and 1,265 mg; Day 36 % TGI ([2]; Day 36 vs Day 1, relative to vehicle control (Group 1), deaths not included): 16.8%; Day 1 Average Weight [3]: 22.48 g; Day 4 Average Weight ([3]; Day 4): 21.76 g; Day 8 Average Weight ([3]; Day 8): 20.91 g; Day 11 Average Weight [3]: 20.52 g; Day 15 Average Weight [3]: 21.70 g; Day 18 Average Weight ([3]; Day 18): 23.15 g; Day 22 % Weight Loss or Gain ([3]; Day 22, vs starting weight): 8.59%; Day 26 Average Weight ([3]; Table 13 Day 26): 24.21 g; Day 26 % Weight Loss or Gain ([3]; Table 13 Day 26, vs starting weight): 7.70%; Starting Weight [3]: 22.48 g; Maximum weight loss ([3]; body weight of mice): 8.7%; Day 4 % Weight Loss or Gain ([3]; mouse, in vivo): −3.20%; Day 8 % Weight Loss or Gain ([3]; mouse, in vivo): −6.98%; Day 11 % Weight Loss or Gain ([3]; mouse, in vivo): −8.72%; Day 15 % Weight Loss or Gain ([3]; mouse, in vivo): −3.47%; Day 18 % Weight Loss or Gain ([3]; mouse, in vivo): 2.98%; Day 22 % Weight Loss or Gain ([3]; mouse, in vivo): 7.74%; Day 22 Average Weight ([3]; mouse, in vivo): 24.22 g; Day 26 % Weight Loss or Gain ([3]; mouse, in vivo): 7.96%; Day 26 Average Weight ([3]; mouse, in vivo): 24.27 g; Day 30 % Weight Loss or Gain ([3]; mouse, in vivo): 7.61%; Day by which the mice recovered their weight ([3]; mouse, in vivo): ≤ 18 days; Day on which maximum weight loss was reached ([3]; mouse, in vivo): 11 days; Deaths [3, 6]: 0; Deaths ([3]; total deaths on or before Day 36, n = 10 per group): 0

Source: US20120196828A1, “SENSITIZATION OF CANCER CELLS TO TREATMENT” (priority 2011, published 2012)
